Data on 14 compounds can be found in ChEMBL document CHEMBL1134196, “Oxo-piperazine derivatives of N-arylpiperazinones as inhibitors of farnesyltransferase” (Bioorg Med Chem Lett, 2001).

Data set [1] can be described thus: Half life value of the compound. It counts as ADME. Conditions: rat.
A short description of data set [2]: Pharmacokinetic data in dogs at dose of 1 mg/kg perorally, and the area under curve (AUC) was reported. It counts as ADME, organism-based, Canis lupus familiaris. More on the design: dose 1 mg/kg, route oral. Particulars: dog, in vivo, po.
Data set [3] can be described thus: Maximal plasma concentration required for pharmacokinetic data in dogs at dose of 1 mg/kg perorally. Particulars: dog, po. It counts as ADME, organism-based, Canis lupus familiaris. On the set-up: dose 1 mg/kg, route oral.
Data set [4] has as its target Protein farnesyltransferase (Homo sapiens, UniProt P49354+P49356). Put plainly: Inhibition of [3H]FPP incorporation into recombinant Ras-CVIM by human farnesyl transferase. It counts as protein-complex assay.
Data set [5] concerns Rat1. The experiment in a line: Inhibition of RAT1 v-Ha-ras-transformed cell growth in soft agar. It counts as functional. Particulars: Rattus norvegicus.
Another data set is filed under the species Rattus norvegicus. Put plainly: Concentration at which 80% cultured cells remain viable assessed by MTT staining. It counts as functional.
A short description of data set [6]: Partition coefficient (logP). It counts as physicochemical. Conditions: octanol/water.
Data set [7] has as its system Rat1. The experiment in a line: Inhibition of anchorage-dependent proliferation of RAT1 v-Ha-ras-transformed cells on poly(HEMA). Particulars: Rattus norvegicus. It counts as functional, cell-based.
Data set [8] deals with Geranylgeranyl transferase type I (Homo sapiens, UniProt P49354+P53609). Put plainly: Inhibition of human geranylgeranyltransferase-1. It counts as protein-complex assay.

Compound `Cc1cccc(N2CCN(Cc3cncn3Cc3ccc(C#N)cc3)C(=O)C2=O)c1C` showed a half-life in [1] of 60 min. This compound returned an AUC in data set [2] of 4.43 µM·h. In data set [3], this compound gave a Cmax of 2290 nM. For the same compound, in data set [4], the 50% inhibitory concentration (IC50) stood at 20 µM. This compound showed a concentration for an effect of 90% (IC90) with Rat1 [5] above 1 µM. The same compound showed a concentration for an effect of 20% (IC20) in the data set filed under Rattus norvegicus of 10 µM. Moreover, the lipophilicity (logP) in data set [6] is 1.11.
`CCCC[C@H]1CN(c2cccc(C)c2C)C(=O)C(=O)N1Cc1cncn1Cc1ccc(C#N)cc1` gave a half-life in [1] of 54 min. Also, in data set [2], the AUC was 4.25 µM·h. This compound registered a Cmax in data set [3] of 1950 nM. Further, the half-inhibitory concentration (IC50) in the data set with Rat1 [7] was 15 µM; in data set [4] it was 3 µM. Also, it took 1 µM to reach the 90% level in the data set with Rat1 [5] (IC90). Besides, the 20% effect level in the data set filed under Rattus norvegicus (IC20) was put at 10 µM. The same compound registered a logP in data set [6] of 3.3.
`N#Cc1ccc(Cn2cncc2CN2CCN(c3cccc(Cl)c3)C(=O)C2=O)cc1` had a half-life in data set [1] of 132 min. Moreover, the AUC in data set [2] came out at 12.5 µM·h. The compound also had a peak concentration (Cmax) in [3] of 3110 nM. Also, the IC50 in data set [4] is 11 µM. The compound also gave an IC90 with Rat1 [5] of 1 µM. Also, the 20% effect concentration (IC20) in the data set filed under Rattus norvegicus was above 100 µM. Also, the logP in [6] amounted to 1.24.
For `N#Cc1ccc(Cn2cncc2CN2CCN(c3cccc(Cl)c3)C(=O)C2)cc1` [L-778123 FREE BASE], in data set [1], the half-life is 47.4 min. Further, the area under the curve (AUC) in [2] came to 5.3 µM·h. The same compound registered a Cmax in data set [3] of 2980 nM. Also, the concentration for an effect of 90% (IC90) with Rat1 [5] worked out at 0.1 µM. Moreover, in the data set filed under Rattus norvegicus, the 20% effect concentration (IC20) is above 100 µM. For the same compound, the logP in [6] came out at 2.11.
As to `N#Cc1ccc(Cn2cncc2CN2CCN(c3ccccc3)C(=O)C2)cc1`, the IC50 is 8.7 µM in [8] and 5 µM in data set [4]. This compound also registered a logP in data set [6] of 1.32.
Take `N#Cc1ccc(Cn2cncc2CN2CC(=O)N(c3ccccc3)CC2=O)cc1`: in [4], the half-inhibitory concentration (IC50) was determined as 950 µM. Besides, the logP in [6] amounted to 0.55.
For `N#Cc1ccc(Cn2cncc2CN2CCN(c3cccc(Cl)c3)CC2)cc1`, the IC50 in [4] turned out to be 250 µM. The compound further showed an IC90 with Rat1 [5] of 1 µM. Besides, it took 25 µM to reach the 20% level in the data set listed under Rattus norvegicus (IC20). The compound further showed a logP in data set [6] above 3.4.
Turning to `Cc1cccc(N2CCN(Cc3cncn3Cc3ccc(C#N)cc3)CC2=O)c1C`, the half-life in [1] is 30 min. Further, the AUC in data set [2] stood at 1.4 µM·h. In data set [3], the highest concentration (Cmax) came out at 1060 nM. Further, the IC50 with Rat1 [7] worked out at 83 µM; in data set [4], 11 µM. The same compound returned a concentration for an effect of 90% (IC90) with Rat1 [5] of 1 µM. In the data set filed under Rattus norvegicus, it took 10 µM to reach the 20% level (IC20). For the same compound, the log partition coefficient (logP) in data set [6] was 2.
As for `CCCC[C@H]1CN(c2cccc(C)c2C)CC(=O)N1Cc1cncn1Cc1ccc(C#N)cc1`, in [1], the half-life is 138 min. Besides, the area under the curve (AUC) in data set [2] amounted to 3.46 µM·h. For the same compound, the Cmax in data set [3] stood at 960 nM. The values for the concentration for half-maximal inhibition (IC50) (with Rat1 [7]; in data set [4]) were 2.51 µM and 1.3 µM, respectively. In addition, in the data set on Rat1 [5], the IC90 was 10 µM. The IC20 in the data set listed under Rattus norvegicus is 100 µM. Besides, the log partition coefficient (logP) in [6] is above 3.5.
In the case of `N#Cc1ccc(Cn2cncc2C(=O)N2CCN(c3cccc(Cl)c3)CC2)cc1`, it took 0.1 µM to reach the 90% level in the data set with Rat1 [5] (IC90). In addition, the IC20 in the data set filed under Rattus norvegicus is above 100 µM. The lipophilicity (logP) in data set [6] came to 2.79.
Take `N#Cc1ccc(Cn2cncc2C(=O)N2CCN(c3cccc(Cl)c3)C(=O)C2)cc1`: in data set [4], the IC50 was found to be 33 µM. This compound yielded an IC90 in the data set with Rat1 [5] of 1 µM. In the data set listed under Rattus norvegicus, this compound gave an IC20 above 100 µM.
As to `CCCC[C@H]1CN(c2cccc(C)c2C)C(=O)CN1Cc1cncn1Cc1ccc(C#N)cc1`, in data set [1], the half-life is 36 min. The compound also had an exposure (AUC) in data set [2] of 0.15 µM·h. The Cmax in data set [3] was determined as 140 nM. The compound further registered a half-inhibitory concentration (IC50) in the data set on Rat1 [7] of 28 µM. Further, it took 1 µM to reach the 90% level in the data set with Rat1 [5] (IC90). The same compound showed a 20% effect concentration (IC20) in the data set filed under Rattus norvegicus of 50 µM. Also, the logP in data set [6] is above 3.7.
`N#Cc1ccc(Cn2cncc2CN2CCN(c3ccccc3)C(=O)C2=O)cc1`: the half-inhibitory concentration (IC50) in data set [8] was above 20 µM; in data set [4], 16 µM. The logP in data set [6] was found to be 0.46.
Regarding `N#Cc1ccc(Cn2cncc2CN2CCN(c3cccc(Cl)c3)CC2=O)cc1`, in [1], the half-life is 72 min. In data set [2], the area under the curve (AUC) is 8.58 µM·h. Besides, the maximum concentration (Cmax) in data set [3] was found to be 3140 nM. In addition, in data set [4], the IC50 amounted to 100 µM. Also, in the data set with Rat1 [5], the IC90 is 1 µM. The 20% effect concentration (IC20) in the data set filed under Rattus norvegicus is above 100 µM. In data set [6], this compound came in with a logP of 2.51.
